Results: patent publication US8933232B2, “1,3,4-oxadiazole and 1,3,4-thiadiazole beta-lactamase inhibitors” (priority 2012, dated 2015)
Where a name gives a salt, the structure may show the parent alone.

System: bacterial strains that express KPC β-lactamases
Test: Synergy MIC / standard BLI potentiation MIC assay against strains expressing KPC β-lactamases
Type: cell-based
Conditions: in the presence of a β-lactam; comparator Avibactam
Method: The experimental protocol was performed according to Clinical and Laboratory Standards Institute (CLSI) guidelines with modifications as described below (CLSI guidelines can be derived from the CLSI document M07-A9 published in January 2012: “Methods for Dilution Antimicrobial Susceptibility Tests for Bacteria That Grow Aerobically; Approved Standard-Ninth Edition”).
To prepare for MIC testing, frozen glycerol stocks of clinical isolates (Klebsiella pneumoniae, Eschericia coli, Enterobacter spp, Citrobacter spp, or Pseudomonas aeruginosa) were used to streak for isolated colonies on rich, non-selective, tryptic soy agar containing 5% sheep's blood (TSAB). Frozen glycerol stocks of laboratory engineered, isogenic E. coli strains, which contain cloned β-lactamase expressing plasmids were used to streak for isolated colonies on rich, selective LB agar supplemented with 25 μg/mL tetracycline to maintain the plasmid. All strains were incubated at 37° C. for 18-24 hrs.
On the day of testing, primary cultures were started by scraping off 5-10 colonies from the TSAB plates containing clinical strains or the tetracycline supplemented LB plates containing engineered strains. The clinical strain material was suspended in ˜5 mL of cation adjusted Mueller Hinton Broth (CAMHB) in 14 mL culture tubes. The engineered strain material was suspended in CAMHB (supplemented with 25 μg/mL tetracycline) in 14 mL culture tubes. All strains were incubated at 37° C. with aeration (200 rpm) for ˜2 hrs until the optical density at 600 nm (OD600) was >0.1.
The two compound components of the assay were each diluted in CAMHB and added to the 96-well broth microdilution assay plates. 50 μL of the β-lactam was added to each well of the assay plate in 2-fold dilutions with final concentrations ranging from 128 to 0.13 μg/mL. 25 μL, of the BLI compound was added to all wells in the broth microdilution plates at a final concentration of 4 μg/mL. Inoculum cultures were prepared by standardizing the primary cultures to OD600=0.1 and then adding 20 μL of the adjusted primary culture per 1 mL CAMHB for clinical strains or CAMHB (supplemented with tetracycline at 100 μg/mL) for engineered strains, so that the final inoculum density was ˜10^5 colony forming units per milliliter. Diluted inoculum cultures were used to inoculate 25 μl, per well in 96-well broth microdilution assay plates. The final volume of each well was 100 μL and contained a β-lactam at different concentrations, a BLIcompound at 4 μg/mL concentration, the bacterial culture at an OD600 of approximately 0.001 and when necessary tetracycline at 25 μg/mL.
Plates were incubated for 18-20 hours at 37° C. with aeration (200 rpm). Following incubation, growth was confirmed visually placing plates over a viewing apparatus (stand with a mirror underneath) and then OD600 was measured using a SpectraMax 340PC384 plate reader (Molecular Devices, Sunnyvale, Calif.). Growth was defined as turbidity that could be detected with the naked eye or achieving minimum OD600 of 0.1. MIC values were defined as the lowest concentration producing no visible turbidity.
The synergy MIC (sMIC) assay determines the concentration of the BLI required to potentiate the activity of a fixed concentration of a β-lactam antibiotic against β-lactamase producing bacterial strains. The experimental protocol was performed according to Clinical and Laboratory Standards Institute (CLSI) guidelines with modifications as described below (CLSI guidelines can be derived from the CLSI document M07-A9 published in January 2012: “Methods for Dilution Antimicrobial Susceptibility Tests for Bacteria That Grow Aerobically; Approved Standard-Ninth Edition”). […]

Compound | more active than Avibactam for at least one bacterial strain that expresses KPC β-lactamase and/or better spectrum of activity against KPC strains
O=C1N2C[C@@H](CC[C@H]2c2nnc(C3CC4(CNC4)C3)o2)N1OS(=O)(=O)O [Compound 750, (2S,5R)-2-(5-(2-azaspiro[3.3]heptan-6-yl)-1,3,4-oxadiazol-2-yl)-7-oxo-1,6-diazabicyclo[3.2.1]octan-6-yl hydrogen sulfate] | more active than Avibactam
O=C1N2C[C@@H](CC[C@H]2c2nnc(CCCNC3CCNCC3)o2)N1OS(=O)(=O)O [Compound 771, (2S,5R)-7-oxo-2-(5-(3-(piperidin-4-ylamino)propyl)-1,3,4-oxadiazol-2-yl)-1,6-diazabicyclo[3.2.1]octan-6-yl hydrogen sulfate] | more active than Avibactam
N=C(N)NC1(Cc2nnc([C@@H]3CC[C@@H]4CN3C(=O)N4OS(=O)(=O)O)o2)CC1 [Compound 739, (2S,5R)-2-(5-((1-guanidinocyclopropyl)methyl)-1,3,4-oxadiazol-2-yl)-7-oxo-1,6-diazabicyclo[3.2.1]octan-6-yl hydrogen sulfate] | more active than Avibactam
O=C1N2C[C@@H](CC[C@H]2c2nnc(C3CCNC3)o2)N1OS(=O)(=O)O (stereo partly drawn) [Compound 710, (2S,5R)-7-oxo-2-(5-(pyrrolidin-3-yl)-1,3,4-oxadiazol-2-yl)-1,6-diazabicyclo[3.2.1]octan-6-yl hydrogen sulfate] | more active than Avibactam
O=C1N2C[C@@H](CC[C@H]2c2nnc(CCCCNC3CCNCC3)o2)N1OS(=O)(=O)O [Compound 772, (2S,5R)-7-oxo-2-(5-(4-(piperidin-4-ylamino)butyl)-1,3,4-oxadiazol-2-yl)-1,6-diazabicyclo[3.2.1]octan-6-yl hydrogen sulfate] | more active than Avibactam
N=C(N)Nc1nnc([C@@H]2CC[C@@H]3CN2C(=O)N3OS(=O)(=O)O)o1 [Compound 738, (2S,5R)-2-(5-guanidino-1,3,4-oxadiazol-2-yl)-7-oxo-1,6-diazabicyclo[3.2.1]octan-6-yl hydrogen sulfate] | more active than Avibactam
CC(C)(N)Cc1nnc([C@@H]2CC[C@@H]3CN2C(=O)N3OS(=O)(=O)O)o1 [Compound 737, (2S,5R)-2-(5-(2-amino-2-methylpropyl)-1,3,4-oxadiazol-2-yl)-7-oxo-1,6-diazabicyclo[3.2.1]octan-6-yl hydrogen sulfate] | more active than Avibactam
N[C@@H]1CC[C@H](c2nnc([C@@H]3CC[C@@H]4CN3C(=O)N4OS(=O)(=O)O)o2)C1 [Compound 729, (2S,5R)-2-(5-((1S,3R)-3-aminocyclopentyl)-1,3,4-oxadiazol-2-yl)-7-oxo-1,6-diazabicyclo[3.2.1]octan-6-yl hydrogen sulfate] | more active than Avibactam
N[C@H]1CN[C@H](c2nnc([C@@H]3CC[C@@H]4CN3C(=O)N4OS(=O)(=O)O)o2)C1 [Compound 762, (2S,5R)-2-(5-((2S,4R)-4-aminopyrrolidin-2-yl)-1,3,4-oxadiazol-2-yl)-7-oxo-1,6-diazabicyclo[3.2.1]octan-6-yl hydrogen sulfate] | more active than Avibactam
NC(=O)c1nnc([C@@H]2CC[C@@H]3CN2C(=O)N3OS(=O)(=O)O)o1 [Compound 706, (2S,5R)-2-(5-carbamoyl-1,3,4-oxadiazol-2-yl)-7-oxo-1,6-diaza-bicyclo[3.2.1]octan-6-yl hydrogen sulfate] | more active than Avibactam
N[C@@H]1CN[C@H](c2nnc([C@@H]3CC[C@@H]4CN3C(=O)N4OS(=O)(=O)O)o2)C1 [Compound 760, (2S,5R)-2-(5-((2S,4S)-4-aminopyrrolidin-2-yl)-1,3,4-oxadiazol-2-yl)-7-oxo-1,6-diazabicyclo[3.2.1]octan-6-yl hydrogen sulfate] | more active than Avibactam
O=C1N2C[C@@H](CC[C@H]2c2nnc(CN[C@H]3CCNC3)o2)N1OS(=O)(=O)O [Compound 765, (2S,5R)-7-oxo-2-(5-(((S)-pyrrolidin-3-ylamino)methyl)-1,3,4-oxadiazol-2-yl)-1,6-diazabicyclo[3.2.1]octan-6-yl hydrogen sulfate] | more active than Avibactam
N[C@H]1C[C@H](Cc2nnc([C@@H]3CC[C@@H]4CN3C(=O)N4OS(=O)(=O)O)o2)C1 [Compound 751, (2S,5R)-2-(5-(((1r,3S)-3-aminocyclobutyl)methyl)-1,3,4-oxadiazol-2-yl)-7-oxo-1,6-diazabicyclo[3.2.1]octan-6-yl hydrogen sulfate] | more active than Avibactam
N[C@H]1C[C@H](c2nnc([C@@H]3CC[C@@H]4CN3C(=O)N4OS(=O)(=O)O)s2)C1 [Compound 783, (2S,5R)-2-(5-((1r,3S)-3-aminocyclobutyl)-1,3,4-thiadiazol-2-yl)-7-oxo-1,6-diazabicyclo[3.2.1]octan-6-yl hydrogen sulfate] | more active than Avibactam
O=C1N2C[C@@H](CC[C@H]2c2nnc(COC3CNC3)o2)N1OS(=O)(=O)O [Compound 744, (2S,5R)-2-(5-((azetidin-3-yloxy)methyl)-1,3,4-oxadiazol-2-yl)-7-oxo-1,6-diazabicyclo[3.2.1]octan-6-yl hydrogen sulfate] | more active than Avibactam
N=C(N)NCCc1nnc([C@@H]2CC[C@@H]3CN2C(=O)N3OS(=O)(=O)O)o1 [Compound 705, (2S,5R)-2-(5-(2-guanidinoethyl)-1,3,4-oxadiazol-2-yl)-7-oxo-1,6-diazabicyclo[3.2.1]octan-6-yl hydrogen sulfate] | more active than Avibactam
N[C@@H]1CN[C@@H](c2nnc([C@@H]3CC[C@@H]4CN3C(=O)N4OS(=O)(=O)O)o2)C1 [Compound 763, (2S,5R)-2-(5-((2R,4S)-4-aminopyrrolidin-2-yl)-1,3,4-oxadiazol-2-yl)-7-oxo-1,6-diazabicyclo[3.2.1]octan-6-yl hydrogen sulfate] | more active than Avibactam
N[C@H]1C[C@@H](c2nnc([C@@H]3CC[C@@H]4CN3C(=O)N4OS(=O)(=O)O)s2)C1 [Compound 795, (2S,5R)-2-(5-((1s,3R)-3-aminocyclobutyl)-1,3,4-thiadiazol-2-yl)-7-oxo-1,6-diazabicyclo[3.2.1]octan-6-yl hydrogen sulfate] | more active than Avibactam
